Test results: patent US12473295B2, “Substituted straight chain spiro derivatives” (Janssen Pharmaceutica NV, priority 2019, dated 2025)
Counter-ions that a name gives are not always drawn.

Assays:
[1] = Metabolic stability in mouse liver microsomes; type: in vitro ADME; details: mouse liver microsomes 0.5 mg/mL, 1 μM test compound, pH 7.4; read-out: Mouse LM Clint
Description: (§1) 4) Metabolic Stability in Human/Mouse Liver Microsomes
(§2) The objective of this study is to measure in vitro metabolic stability of test compound(s) in human and mouse liver microsomes and provide quantitative information on the rate of metabolic turnover (i.e. determination of the apparent intrinsic clearance of test).
(§3) Test items were prepared at a stock concentration of 10 mM in DMSO. For determination of metabolic turnover, a final working solution was prepared by adding 2 μL of 10 mM DMSO stock solution for test compound or positive control compounds to 198 μL of acetonitrile (100 μM final concentration).
(§4) Incubations were performed as follows: First, liver microsomes were thawed on ice and a master solution containing liver microsomes in 100 mM PBS (phosphate-buffered saline) at pH 7.4 is prepared. Next, the liver microsomes solution was added to the incubation plates and 10 mM NADPH (Nicotinamide-adenine dinucleotide phosphate) was added (MW: 833.4 g/mol; Roche Diagnostics GmbH, Germany. Dissolved in phosphate buffer (100 mmol/L, pH 7.4)). The mixture was mixed for 10 seconds and pre-warmed in the incubation plate at 37° C. for 10 minutes. The metabolic reaction was initiated with the addition of 5 μL of the 100 μM working solution for test compound or positive control compounds to incubation plate (final test item concentration=1 μM). The reaction final mixture should contain 1 mM NADPH, 0.5 mg/mL microsomes protein and 1 μM test compound or positive control compound in 100 mM PBS at pH 7.4. The percentage of organic solvent in incubation mixture is 1% with DMSO ≤0.02%.
(§5) The reaction was quenched by transferring 50 μL of the incubated mixture at selected time points into the quenching plate containing 200 μL of cold methanol. After sampling of all the timepoints the quenching plate was centrifuged at 4000 rpm for 40 minutes to precipitate protein. A total of 90 μL of the supernatant was transferred to an analysis plate and ultra-pure H2O water is added into each well for LC/MS/MS analysis. All incubations and analysis were performed in duplicate.
(§6) All calculations were carried out using Microsoft Excel. The slope value, k, was determined by linear regression of the natural logarithm of the remaining percentage of the parent drug vs. incubation time curve.
(§7) The in vitro half-life (in vitro tin) was determined from the slope value: in vitro t1/2=−(0.693/k)
(§8) Conversion of the in vitro tin (in min) into the in vitro intrinsic clearance (in vitro CLint, in μL/min/mg proteins) was done using the following equation: […]

MEIS1 mRNA = MEIS1 mRNA expression assay (Quantigene Singleplex) in MOLM14 cells; type: cell-based, human; details: Homo sapiens, MOLM-14, 48 h, 48 hours incubation;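 further: MEIS1 transcript levels read by probe hybridization and normalized to RPL28 mRNA, with IC50 fitted to fold changes across a rising compound concentration series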
[2] = target: menin/MLL (terbium chelate-labeled menin, FITC-MBM1 peptide) (Homo sapiens (Human), UniProt O00255); experiment: Menin/MLL homogenous time-resolved fluorescence (HTRF) assay; type: binding; details: HTRF-30 min incubation IC50, 30 min incubation;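 further: IC50 from percent inhibition of HTRF signal, normalized between wells without competitor and wells with a saturating competitor that displaces FITC-MBM1 from His-tagged menin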
[3] = Metabolic stability in human liver microsomes; type: in vitro ADME; details: human liver microsomes 0.5 mg/mL, 1 μM test compound, pH 7.4; read-out: Human LM Clint
Description: as §1, §2, §3, §4, §5, §6, §7, §8

hERG = hERG (Homo sapiens (Human), UniProt Q12809); experiment: Effect on membrane potassium current IKr in hERG-transfected HEK293 cells, Protocol 2 (SyncroPatch 384PE); type: cell-based; details: Protocol 2, hERG-transfected HEK293 cells
Description: 8) Effect on the Membrane Potassium Current IKr in hERG Transfected Cell Lines
The compound, vehicle control and positive control were tested on hERG-transfected HEK293 cells. A human embryonic kidney cell line (HEK293) with a stable transfection of hERG (Zhou Z et al. Biophysical Journal 1998. 74, 230-241; McDonald T. V. et al, Nature 1997. 388, 289-292) was used (University of Wisconsin, Madison, USA). The cells were kept in culture in MEM (Minimum Essential Medium, Gibco) which was supplemented with (amounts indicated added to 500 ml MEM): 5 ml L-Glutamine-Penicillin-Streptomycin (Sigma), 50 ml Fetal Bovine serum (Bio-Whittaker), 5 ml Non-essential Amino Acids 100× (Gibco), 5 ml sodium pyruvate 100 mM (Gibco) and 4 ml geneticin 50 mg/ml (Gibco) using T175 flasks. The cells were incubated at 37° C. in 5% CO2 atmosphere (in air).
Cell Harvesting for Assay
Cells were harvested as described below using Accumax™ (Sigma) as the dissociating reagent. Cells were then resuspended in a mixture of 33% DMEM/F12 (Dulbecco's Modified Eagle Medium/Nutrient Mixture F-12—Sigma) media/67% extracellular physiological solution.
The flasks were washed twice carefully with ˜5-10 ml phosphate buffered saline (PBS) (Gibco™) containing 2 mM EDTA (Ethylenediaminetetraacetic acid) (Sigma). The cells were dissociated using ˜3 ml of Accumax™ (cell detachment solution) and incubated for ˜5 to 10 min. at 37° C. Cold external physiological solution (2-5 ml) was added and the flasks are incubated at ˜4° C. for 5-10 min. Then, the cell suspension in each flask was gently dissociated with a 5 ml pipette. The cell suspension was transferred to a low binding petri-dish (˜[…]). Each flask was washed with ˜additional 5 ml cold external physiological solution and this solution was also added to the petri-dish. The petri-dish was then incubated for another 5 to 10 minutes at ˜4° C. After another gentle dissociation of the cell suspension in the petri dish, the cells were transferred to a reservoir kept on an orbital shaker at 200 rpm at 16° C. Before experiments were performed, the cells recovered for ˜20 min.
A 10 mM solution of the compound was used and plated in a 384 well plate. Aliquots of the stock solutions are diluted with the recording solution (see section 3) using automated liquid handling (Biomek FXP; final DMSO concentration: 0.03 to 0.3%). A standard range of screening concentrations was used ranging from 1 μM to 30 μM.
A positive control (E-4031) was included within each run to evaluate the sensitivity of the assay.
External and Intracellular Solutions Used in the Experiments
In the table below the composition of the intracellular and external buffer solutions is shown in [mM] (“NMDG” means N-methyl-D-glucamine)
The whole cell patch clamp technique on transfected cells allows the study of ion-channels with no—or limited interference from other ion-channels. The effects of the compounds on the hERG current were studied with an automated planar patch clamp system, SyncroPatch 384PE (Obergrussberger et al, Journal of Laboratory Automation 2016. 21 (6). 779-793). All cells were recorded in the whole cell mode of the patch clamp technique. The module is incorporated in a liquid handling pipetting robot system, Biomek FXP, for application of cells and compounds, vehicle control and positive control.
The different concentrations of the compounds were applied in two cumulatively increasing concentrations for the compounds (1 μM and 10 μM, and 3 μM and 30 μM, respectively). The hERG current was determined as the maximal tail current at −30 mV and percent inhibition upon compound or vehicle and positive control addition was reported.
After cells are caught onto the individual holes of the recording chips using the chip fill solution, the seal is increased with the seal enhancer solution (increased [Ca^2+]; then the cells were washed twice with recording solution before using a pressure protocol to go into the whole cell mode. […]

Chain of hERG (Q12809 whole entry): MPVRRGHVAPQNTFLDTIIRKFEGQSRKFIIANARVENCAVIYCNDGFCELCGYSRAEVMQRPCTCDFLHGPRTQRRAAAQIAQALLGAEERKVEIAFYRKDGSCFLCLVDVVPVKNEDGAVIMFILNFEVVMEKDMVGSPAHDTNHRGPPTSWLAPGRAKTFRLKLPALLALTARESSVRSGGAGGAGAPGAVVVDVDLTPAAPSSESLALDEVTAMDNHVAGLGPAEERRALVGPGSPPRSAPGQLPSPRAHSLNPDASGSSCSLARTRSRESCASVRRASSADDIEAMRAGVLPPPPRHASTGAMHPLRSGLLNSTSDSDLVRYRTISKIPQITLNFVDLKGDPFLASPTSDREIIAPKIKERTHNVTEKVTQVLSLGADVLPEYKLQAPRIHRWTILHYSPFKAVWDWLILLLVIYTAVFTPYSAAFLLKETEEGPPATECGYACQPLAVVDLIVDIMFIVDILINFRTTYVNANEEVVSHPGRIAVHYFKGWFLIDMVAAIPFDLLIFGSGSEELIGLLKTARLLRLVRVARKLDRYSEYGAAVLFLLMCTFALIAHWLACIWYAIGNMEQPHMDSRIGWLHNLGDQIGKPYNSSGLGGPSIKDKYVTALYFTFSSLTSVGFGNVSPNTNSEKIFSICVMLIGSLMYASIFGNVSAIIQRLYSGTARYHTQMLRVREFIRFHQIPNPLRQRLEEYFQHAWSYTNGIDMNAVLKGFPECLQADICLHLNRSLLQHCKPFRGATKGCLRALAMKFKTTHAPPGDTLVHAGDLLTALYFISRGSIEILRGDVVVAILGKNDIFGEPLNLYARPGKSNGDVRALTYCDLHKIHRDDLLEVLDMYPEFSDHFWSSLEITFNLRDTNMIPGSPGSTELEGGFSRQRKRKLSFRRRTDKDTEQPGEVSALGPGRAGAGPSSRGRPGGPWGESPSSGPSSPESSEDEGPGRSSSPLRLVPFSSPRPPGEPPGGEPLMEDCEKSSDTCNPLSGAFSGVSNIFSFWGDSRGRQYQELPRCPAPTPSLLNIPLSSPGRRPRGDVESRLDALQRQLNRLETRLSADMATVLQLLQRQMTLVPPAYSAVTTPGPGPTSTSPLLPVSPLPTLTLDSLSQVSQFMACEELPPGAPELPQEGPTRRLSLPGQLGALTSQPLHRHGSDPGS
Chain of menin/MLL (terbium chelate-labeled menin, FITC-MBM1 peptide) (O00255 other isoform, or with tags, fused parts or gaps): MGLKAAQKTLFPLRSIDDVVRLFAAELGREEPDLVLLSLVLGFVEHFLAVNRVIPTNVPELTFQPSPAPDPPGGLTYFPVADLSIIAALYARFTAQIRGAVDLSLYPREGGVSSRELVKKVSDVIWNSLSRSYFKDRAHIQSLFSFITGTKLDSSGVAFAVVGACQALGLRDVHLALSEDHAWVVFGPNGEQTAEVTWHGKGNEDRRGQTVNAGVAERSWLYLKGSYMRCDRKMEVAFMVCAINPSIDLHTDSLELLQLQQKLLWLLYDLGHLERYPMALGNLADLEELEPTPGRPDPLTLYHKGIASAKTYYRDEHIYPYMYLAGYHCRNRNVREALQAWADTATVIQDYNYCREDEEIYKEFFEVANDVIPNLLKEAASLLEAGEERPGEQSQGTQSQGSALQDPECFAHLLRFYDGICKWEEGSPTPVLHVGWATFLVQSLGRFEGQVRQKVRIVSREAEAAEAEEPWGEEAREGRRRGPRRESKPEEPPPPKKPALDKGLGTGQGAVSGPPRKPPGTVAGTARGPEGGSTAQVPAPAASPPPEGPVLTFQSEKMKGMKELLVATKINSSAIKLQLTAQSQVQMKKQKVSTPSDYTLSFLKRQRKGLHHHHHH

## CC(C)[C@@H](CCC(C)(C)N)N1CC2(CCN(c3ncnnc3Oc3ccc(F)cc3-c3cncnc3C3CC3)C2)C1 (single isomer, unassigned) [Compound 37, (*R)-5-(6-(6-(2-(4-cyclopropylpyrimidin-5-yl)-4-fluorophenoxy)-1,2,4-triazin-5-yl)-2,6-diazaspiro[3.4]octan-2-yl)-2,6-dimethylheptan-2-amine]
[1]
  microsomal CLint at 1 μM: < 7.5 µL/min/mg
MEIS1 mRNA
  IC50: 39 nM
[2]
  IC50: 0.12 nM
[3]
  microsomal CLint at 1 μM: < 7.5 µL/min/mg

## COCCNCCC[C@H](C(C)C)N1CC2(CCN(c3ncnnc3Oc3ccc(F)cc3C(=O)N(C(C)C)C(C)C)C2)C1 (single isomer, unassigned) [Compound 99, (*R)-5-fluoro-N,N-isopropyl-2-((5-(2-(6-((2-methoxyethyl)amino)-2-methylhexan-3-yl)-2,6-diazaspiro[3.4]octan-6-yl)-1,2,4-triazin-6-yl)oxy)benzamide oxalate]
[1]
  microsomal CLint at 1 μM: 13 µL/min/mg
hERG
  IC50: > 30200 nM
MEIS1 mRNA
  IC50: 26 nM
[2]
  IC50: 0.2 nM
[3]
  microsomal CLint at 1 μM: 27 µL/min/mg

## CCN(C(=O)c1cc(F)ccc1Oc1nncnc1N1CCC2(C1)CN([C@H](CCCN)C(C)C)C2)C(C)C [Compound 1, (R)-2-((5-(2-(6-amino-2-methylhexan-3-yl)-2,6-diazaspiro[3.4]octan-6-yl)-1,2,4-triazin-6-yl)oxy)-N-ethyl-5-fluoro-N-isopropylbenzamide formate]
[1]
  microsomal CLint at 1 μM: 21 µL/min/mg
MEIS1 mRNA
  IC50: 75 nM
[2]
  IC50: 0.13 nM
[3]
  microsomal CLint at 1 μM: < 7.5 µL/min/mg

## CCN(C(=O)c1cc(F)ccc1Oc1nncnc1N1CCC2(C1)CN([C@H](CCCNCC(OC)OC)C(C)C)C2)C(C)C.O=C(O)/C=C/C(=O)O [Compound 104, (R)-2-((5-(2-(6-((2,2-dimethoxyethyl)amino)-2-methylhexan-3-yl)-2,6-diazaspiro[3.4]octan-6-yl)-1,2,4-triazin-6-yl)oxy)-N-ethyl-5-fluoro-N-isopropylbenzamide fumarate]
[1]
  microsomal CLint at 1 μM: < 7.5 µL/min/mg
hERG
  IC50: > 30200 nM
MEIS1 mRNA
  IC50: 15 nM
[2]
  IC50: 0.074 nM
[3]
  microsomal CLint at 1 μM: 19 µL/min/mg

## CCN(C(=O)c1cc(F)ccc1Oc1nncnc1N1CCC2(C1)CN([C@H](CCCN[C@H](C)COC)C(C)C)C2)C(C)C.O=C(O)/C=C/C(=O)O [Compound 112, N-ethyl-5-fluoro-N-isopropyl-2-(5(2-((R)-6-(((R)-1-methoxypropan-2-yl)amino)-2-methylhexan-3-yl)-2,6-diazaspiro[3.4]octan-6-yl)-1,2,4-triazin-6-yl)oxy)benzamide fumarate]
[1]
  microsomal CLint at 1 μM: < 7.5 µL/min/mg
hERG
  IC50: > 30200 nM
MEIS1 mRNA
  IC50: 9 nM
[2]
  IC50: 0.049 nM
[3]
  microsomal CLint at 1 μM: 17 µL/min/mg

## CCN(C(=O)c1cc(F)ccc1Oc1nncnc1N1CCC2(C1)CN([C@H](CCCNCCC(F)F)C(C)C)C2)C(C)C.O=C(O)/C=C/C(=O)O [Compound 114, (R)-2-(5-(2-(6-((3,3-difluoropropyl)amino)-2-methylhexan-3-yl)-2,6-diazaspiro[3.4]octan-6-yl)-1,2,4-triazin-6-yl)oxy)-N-ethyl-5-fluoro-N-isopropylbenzamide fumarate]
[1]
  microsomal CLint at 1 μM: 15 µL/min/mg
hERG
  IC50: > 30200 nM
MEIS1 mRNA
  IC50: 22 nM
[2]
  IC50: 0.05 nM
[3]
  microsomal CLint at 1 μM: 26 µL/min/mg

## CCN(C(=O)c1cc(F)ccc1Oc1nncnc1N1CCC2(C1)CN([C@H](CCCN(C)CCNC(C)=O)C(C)C)C2)C(C)C.O=C(O)/C=C/C(=O)O [Compound 245, (R)-2-((5-(2-(6-((2-acetamidoethyl)(methyl)amino)-2-methylhexan-3-yl)-2,6-diazaspiro[3.4]octan-6-yl)-1,2,4-triazin-6-yl)oxy)-N-ethyl-5-fluoro-N-isopropylbenzamide fumarate]
[1]
  microsomal CLint at 1 μM: < 7.5 µL/min/mg
hERG
  IC50: > 30200 nM
MEIS1 mRNA
  IC50: 140 nM
[2]
  IC50: 0.26 nM
[3]
  microsomal CLint at 1 μM: 18 µL/min/mg

## CCN(C(=O)c1cc(F)ccc1Oc1nncnc1N1CCC2(C1)CN([C@H](CCCN(C)CCC(=O)N(C)C)C(C)C)C2)C(C)C [Compound 246, (R)-2-((5-(2-(6-((3-(dimethylamino)-3-oxopropyl)(methyl)amino)-2-methylhexan-3-yl)-2,6-diazaspiro[3.4]octan-6-yl)-1,2,4-triazin-6-yl)oxy)-N-ethyl-5-fluoro-N-isopropylbenzamide formate]
hERG
  IC50: > 30200 nM
MEIS1 mRNA
  IC50: 180 nM
[2]
  IC50: 0.063 nM
